Experimental data as given in patent publication US7674819B2 (Warner-Lambert Company LLC, priority 2005, dated 2010).
Positions count from the first letter of the chain named. Like-named read-outs stand apart in the source and are kept apart here.

Legend:
hAR = biological target: T1, hAR (Homo sapiens, UniProt P10275); experiment: Competitive binding of 3H-DHT to baculovirus/Sf9 generated hAR extracts; settings: one hour at 4° C., mean of multiple tests
T1 sequence (P10275 1-920): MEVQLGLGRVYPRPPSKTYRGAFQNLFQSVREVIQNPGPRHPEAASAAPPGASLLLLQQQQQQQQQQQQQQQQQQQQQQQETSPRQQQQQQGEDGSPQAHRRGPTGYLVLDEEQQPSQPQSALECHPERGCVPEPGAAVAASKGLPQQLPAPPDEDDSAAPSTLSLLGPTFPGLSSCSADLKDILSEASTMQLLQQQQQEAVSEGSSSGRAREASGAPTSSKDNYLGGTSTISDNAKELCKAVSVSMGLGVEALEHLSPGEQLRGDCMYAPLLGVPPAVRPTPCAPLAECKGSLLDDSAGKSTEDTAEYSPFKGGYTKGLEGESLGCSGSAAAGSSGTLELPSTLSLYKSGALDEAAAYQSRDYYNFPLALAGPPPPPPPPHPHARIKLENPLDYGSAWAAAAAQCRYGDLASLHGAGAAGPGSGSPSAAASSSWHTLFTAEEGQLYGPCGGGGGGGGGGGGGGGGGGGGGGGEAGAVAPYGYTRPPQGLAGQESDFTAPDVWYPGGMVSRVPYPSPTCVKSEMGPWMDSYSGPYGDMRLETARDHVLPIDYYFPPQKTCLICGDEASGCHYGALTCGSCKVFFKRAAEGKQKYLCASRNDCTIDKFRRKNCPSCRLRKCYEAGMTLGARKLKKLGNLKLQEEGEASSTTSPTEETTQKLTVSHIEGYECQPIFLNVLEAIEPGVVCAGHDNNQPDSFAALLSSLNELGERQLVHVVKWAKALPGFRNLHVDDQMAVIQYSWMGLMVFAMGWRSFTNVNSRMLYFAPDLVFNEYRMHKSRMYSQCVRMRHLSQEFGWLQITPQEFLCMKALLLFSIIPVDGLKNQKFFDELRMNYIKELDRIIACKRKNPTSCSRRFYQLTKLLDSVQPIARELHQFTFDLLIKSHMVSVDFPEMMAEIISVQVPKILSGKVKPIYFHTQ
Method in brief: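 Baculovirus/Sf9-expressed hAR extract incubated with test compound, hydroxylapatite and 1 nM 3H-DHT tracer for 1 h at 4° C, then washed free of unbound tracer. Affinity given as concentration inhibiting half of maximal 3H-DHT binding.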

androgen receptor = biological target: T2, androgen receptor (Homo sapiens, UniProt P10275); experiment: AR Antagonist Cell Assay (MDA-MB453-MMTV clone 54-19, luciferase reporter); format: cell-based; settings: inhibition of induction by DHT (final concentration at 100 μM), 17 hr, compound 0.32-1000 nM, mean of multiple tests
T2 sequence (P10275 1-920 Q868H): T1 sequence (P10275 1-920) with Q868H
Procedure: The compounds ability to antagonize the effects of androgen on the androgen receptor were determined in a whole cell assay as described immediately below.
Experimental Procedure for AR Antagonist Cell Assay
This cell line is a stable transfected cell line with MDA-MB453 cell background (a human breast tumor cell line expressing androgen receptor). A MMTV minimal promoter containing ARE was first cloned in front of a firefly luciferase reporter gene. Then the cascade was cloned into transfection vector pUV120puro. […] Puromycin resistant stable cell line was selected.
Cell Culture Media and Reagents:
Plating medium: DMEM (phenol red free), 10% charcoal treated HyClone serum, 1% L-glutamine
Assay medium: DMEM (phenol red free), 1% charcoal treated HyClone serum, 1% L-glutamine, 1% penicillin/streptomycin
Cells are maintained in culture medium, splitting cells when they reach 80-90% confluence
To test compounds, 10,000 cells/well are plated to opaque 96 cell culture plate in 100 ul/well plating medium, culture for overnight at 37° C. in cell culture incubator
Add 10 ul/well freshly prepared DHT (final concentration at […]) to each well, incubate at 37° C. for 17 hr (overnight)
Add 50 ul/well 3× luciferase buffer, incubate at room temperature for 5 minutes, then count on Luminometer
The results are reported as the mean of multiple tests described below (the numbers of tests are indicated in the footnote). N.D. denotes that the compound was not tested.

[1] = IC50, concentration at which one half of maximum binding of 1 nM 3H-DHT to hAR is inhibited
[2] = concentration at which one half of maximum binding of 1 nM 3H-DHT to hAR is inhibited, read-out: IC50

Compound | IC50 (hAR; [1]) [nM] | IC50 (androgen receptor) [nM] | IC50 (hAR; [2]) [nM] | IC50 (androgen receptor; read-out: IC50) [nM]
CC1(C)CN(Cc2ccccc2C#N)C(=O)C1Oc1ccc(C#N)c(C(F)(F)F)c1 (centres unmarked) [Example 47, 4-[1-(2-Cyano-benzyl)-4,4-dimethyl-2-oxo-pyrrolidin-3-yloxy]-2-trifluoromethyl-benzonitrile] | 83 | 42 | – | –
CC1(C)CN(Cc2ccc(C#N)cc2)C(=O)C1Oc1ccc(C#N)c(C(F)(F)F)c1 (centres unmarked) [Example 48, 4-[1-(4-Cyano-benzyl)-4,4-dimethyl-2-oxo-pyrrolidin-3-yloxy]-2-trifluoromethyl-benzonitrile] | – | 62 | 109 | –
COc1ccc(Cc2noc(CN3CC(C)(C)C(Oc4ccc(C#N)c(C(F)(F)F)c4)C3=O)n2)cc1 (centres unmarked) [Example 50, 4-{1-[3-(4-Methoxy-benzyl)-[1,2,4]oxadiazol-5-ylmethyl]-4,4-dimethyl-2-oxo-pyrrolidin-3-yloxy}-2-trifluoromethyl-benzonitrile] | – | 35 | 152 | –
CC1(C)CN(Cc2nc(-c3ccccc3)no2)C(=O)C1Oc1ccc(C#N)c(C(F)(F)F)c1 (centres unmarked) [Example 52, 4-[4,4-Dimethyl-2-oxo-1-(3-phenyl-[1,2,4]oxadiazol-5-ylmethyl)-pyrrolidin-3-yloxy]-2-trifluoromethyl-benzonitrile] | 160 | 54 | – | –
CC1(C)CN(Cc2ccc3ccccc3n2)C(=O)C1Oc1ccc(C#N)c(C(F)(F)F)c1 (centres unmarked) [Example 54, 4-(4,4-Dimethyl-2-oxo-1-quinolin-2-ylmethyl-pyrrolidin-3-yloxy)-2-trifluoromethyl-benzonitrile] | – | – | 217 | > 1000
CC1(C)CN(Cc2nnc(-c3ccccc3)o2)C(=O)C1Oc1ccc(C#N)c(C(F)(F)F)c1 (centres unmarked) [Example 56, 4-[4,4-Dimethyl-2-oxo-1-(5-phenyl-[1,3,4]oxadiazol-2-ylmethyl)-pyrrolidin-3-yloxy]-2-trifluoromethyl-benzonitrile] | 171 | 735 | – | –
CC1(C)CN(Cc2ccc3nonc3c2)C(=O)C1Oc1ccc(C#N)c(C(F)(F)F)c1 (centres unmarked) [Example 57, 4-(1-Benzo[1,2,5]oxadiazol-5-ylmethyl-4,4-dimethyl-2-oxo-pyrrolidin-3-yloxy)-2-trifluoromethyl-benzonitrile] | 31 | – | – | > 1000
CC1(C)CN(Cc2ccc(-n3cccn3)cc2)C(=O)C1Oc1ccc(C#N)c(C(F)(F)F)c1 (centres unmarked) [Example 60, 4-[4,4-Dimethyl-2-oxo-1-(4-pyrazol-1-yl-benzyl)-pyrrolidin-3-yloxy]-2-trifluoromethyl-benzonitrile] | – | – | 115 | > 1000
Cc1ccc(-c2nnc(CN3CC(C)(C)C(Oc4ccc(C#N)c(C(F)(F)F)c4)C3=O)o2)cc1 (centres unmarked) [Example 61, 4-[4,4-Dimethyl-2-oxo-1-(5-p-tolyl-[1,3,4]oxadiazol-2-ylmethyl)-pyrrolidin-3-yloxy]-2-trifluoromethyl-benzonitrile] | – | 51 | 101 | –
CC1(C)CN(Cc2nc(-c3ccc([N+](=O)[O-])cc3)cs2)C(=O)C1Oc1ccc(C#N)c(C(F)(F)F)c1 (centres unmarked) [Example 65, 4-{4,4-Dimethyl-1-[4-(4-nitro-phenyl)-thiazol-2-ylmethyl]-2-oxo-pyrrolidin-3-yloxy}-2-trifluoromethyl-benzonitrile] | 38 | – | – | 228
COc1ccc(-c2nc(CN3CC(C)(C)C(Oc4ccc(C#N)c(C(F)(F)F)c4)C3=O)no2)cc1 (centres unmarked) [Example 66, 4-{1-[5-(4-Methoxy-phenyl)-[1,2,4]oxadiazol-3-ylmethyl]-4,4-dimethyl-2-oxo-pyrrolidin-3-yloxy}-2-trifluoromethyl-benzonitrile] | – | 84 | 142 | –
CSCN1CC(C)(C)C(Oc2ccc(C#N)c(C(F)(F)F)c2)C1=O (centres unmarked) [Example 68, 4-(4,4-Dimethyl-1-methylsulfanylmethyl-2-oxo-pyrrolidin-3-yloxy)-2-trifluoromethyl-benzonitrile] | – | 64 | 133 | –
CC1(C)CN(S(=O)(=O)c2ccccc2)C(=O)C1Oc1ccc(C#N)c(C(F)(F)F)c1 (centres unmarked) [Example 73, 4-(1-Benzenesulfonyl-4,4-dimethyl-2-oxo-pyrrolidin-3-yloxy)-2-trifluoromethyl-benzonitrile] | – | 49 | 206 | –
COc1cccc(S(=O)(=O)N2CC(C)(C)C(Oc3ccc(C#N)c(C(F)(F)F)c3)C2=O)c1 (centres unmarked) [Example 74, 4-[1-(3-Methoxy-benzenesulfonyl)-4,4-dimethyl-2-oxo-pyrrolidin-3-yloxy]-2-trifluoromethyl-benzonitrile] | – | 96 | 106 | –
CCCS(=O)(=O)N1CC(C)(C)C(Oc2ccc(C#N)c(C(F)(F)F)c2)C1=O (centres unmarked) [Example 75, 4-[4,4-Dimethyl-2-oxo-1-(propane-1-sulfonyl)-pyrrolidin-3-yloxy]-2-trifluoromethyl-benzonitrile] | 64 | 16 | – | –
CCS(=O)(=O)N1CC(C)(C)C(Oc2ccc(C#N)c(C(F)(F)F)c2)C1=O (centres unmarked) [Example 78, 4-(1-Ethanesulfonyl-4,4-dimethyl-2-oxo-pyrrolidin-3-yloxy)-2-trifluoromethyl-benzonitrile] | – | – | 103 | 246
CC1(C)CN(S(=O)(=O)C2CC2)C(=O)C1Oc1ccc(C#N)c(C(F)(F)F)c1 (centres unmarked) [Example 83, 4-(1-Cyclopropanesulfonyl-4,4-dimethyl-2-oxo-pyrrolidin-3-yloxy)-2-trifluoromethyl-benzonitrile] | 50 | – | – | 205
CC1(C)CN(S(=O)(=O)c2ccsc2)C(=O)C1Oc1ccc(C#N)c(C(F)(F)F)c1 (centres unmarked) [Example 84, 4-[4,4-Dimethyl-2-oxo-1-(thiophene-3-sulfonyl)-pyrrolidin-3-yloxy]-2-trifluoromethyl-benzonitrile] | 85 | 55 | – | –
Cc1csc(S(=O)(=O)N2CC(C)(C)C(Oc3ccc(C#N)c(C(F)(F)F)c3)C2=O)c1 (centres unmarked) [Example 86, 4-[4,4-Dimethyl-1-(4-methyl-thiophene-2-sulfonyl)-2-oxo-pyrrolidin-3-yloxy]-2-trifluoromethyl-benzonitrile] | – | – | 140 | 105
